# Assay results published in ChEMBL document CHEMBL1201862, “PubChem BioAssay data set” (2004).
# Where a name gives a salt, the structure may show the parent alone. Activity calls are given as the source filed them.
# Assays:
# [1] = biological target: T1, Mannose-6-phosphate isomerase (Homo sapiens, UniProt P34949); assay: MPI inhibition at elevated mannose 6-phosphate – biochemical, fluorescence intensity, high mannose 6-phosphate, primary screen (AID 1220)
# T1 sequence (P34949 whole entry): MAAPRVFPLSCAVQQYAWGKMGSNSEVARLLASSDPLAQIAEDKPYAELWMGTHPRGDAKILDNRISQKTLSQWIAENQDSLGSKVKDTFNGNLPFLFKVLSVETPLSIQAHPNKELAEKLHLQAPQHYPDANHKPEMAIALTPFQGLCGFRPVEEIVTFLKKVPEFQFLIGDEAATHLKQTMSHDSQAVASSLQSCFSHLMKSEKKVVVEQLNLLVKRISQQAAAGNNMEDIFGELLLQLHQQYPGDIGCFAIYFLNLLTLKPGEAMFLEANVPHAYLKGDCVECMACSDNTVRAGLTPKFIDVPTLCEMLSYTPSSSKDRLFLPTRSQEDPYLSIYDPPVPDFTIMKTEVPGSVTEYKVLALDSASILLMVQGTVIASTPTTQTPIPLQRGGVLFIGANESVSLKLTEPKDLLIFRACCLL
# CAAX prenyl protease 1 = CAAX prenyl protease 1 (Saccharomyces cerevisiae S288c, UniProt P47154); assay: yeast CAAX protease Ste24 inhibition – biochemical, S. cerevisiae, plate reader, cherry-pick, dose response (AID 488815)
# HEK293 = assay: membrane integrity loss in HEK cells – cell-based, fluorescence, cytotoxicity control for IDE activator project, dose response (AID 588440); assay type: functional; settings: Homo sapiens;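 note: cytotoxicity by LDH release measuring loss of membrane integrity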
# [2] = M. tuberculosis H37Rv growth inhibitors, H37Rv strain (AID 1626); assay type: functional
# [3] = biological target: Polyadenylate-binding protein 1 (Homo sapiens, UniProt P11940); assay: MLLE domain peptide-binding blockers, IC50 – biochemical, fluorescence polarization, FITC-PAM2 peptide, dose response (AID 602259); assay type: functional; settings: read-out: IC50_Mean
# [4] = biological target: Dual specificity protein kinase CLK2 (Homo sapiens, UniProt P49760); assay type: functional
# Sequence of Dual specificity protein kinase CLK2 (P49760 whole entry): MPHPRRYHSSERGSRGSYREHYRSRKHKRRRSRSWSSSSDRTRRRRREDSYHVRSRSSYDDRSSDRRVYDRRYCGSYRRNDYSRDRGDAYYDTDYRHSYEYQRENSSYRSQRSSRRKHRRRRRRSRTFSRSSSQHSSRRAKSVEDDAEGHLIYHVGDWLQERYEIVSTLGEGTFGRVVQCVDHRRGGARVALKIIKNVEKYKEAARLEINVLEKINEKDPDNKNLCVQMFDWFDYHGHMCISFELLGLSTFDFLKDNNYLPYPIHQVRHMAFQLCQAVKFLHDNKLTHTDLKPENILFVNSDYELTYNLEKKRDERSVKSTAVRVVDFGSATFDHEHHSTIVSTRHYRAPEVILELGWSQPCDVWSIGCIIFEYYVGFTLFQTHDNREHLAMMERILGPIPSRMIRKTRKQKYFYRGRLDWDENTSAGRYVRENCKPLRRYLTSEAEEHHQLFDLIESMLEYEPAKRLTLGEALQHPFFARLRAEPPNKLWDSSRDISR
# [5] = biological target: Mitogen-activated protein kinase 8 (Homo sapiens, UniProt P45983); assay type: functional;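 note: value comes from one member of a kinome-wide kinase profiling panel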
# [6] = biological target: MAP kinase-activated protein kinase 2 (Homo sapiens, UniProt P49137); assay type: functional;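 note: measured as one member of a kinome-wide kinase panel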
# Sequence of MAP kinase-activated protein kinase 2 (P49137 whole entry): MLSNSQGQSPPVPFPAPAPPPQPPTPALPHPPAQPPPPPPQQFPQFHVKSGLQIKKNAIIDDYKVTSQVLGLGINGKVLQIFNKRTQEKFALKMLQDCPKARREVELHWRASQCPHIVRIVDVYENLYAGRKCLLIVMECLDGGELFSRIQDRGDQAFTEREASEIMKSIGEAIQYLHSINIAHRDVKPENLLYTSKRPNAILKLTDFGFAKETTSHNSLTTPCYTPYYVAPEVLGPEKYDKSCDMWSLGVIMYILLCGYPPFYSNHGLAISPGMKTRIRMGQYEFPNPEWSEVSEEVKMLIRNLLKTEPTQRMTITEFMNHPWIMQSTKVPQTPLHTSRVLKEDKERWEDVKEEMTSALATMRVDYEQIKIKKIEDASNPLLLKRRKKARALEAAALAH
# [7] = biological target: RAC-gamma serine/threonine-protein kinase (Homo sapiens, UniProt Q9Y243); assay type: functional
# [8] = biological target: Tyrosine-protein kinase receptor TYRO3 (Homo sapiens, UniProt Q06418); assay type: functional;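 note: TYRO3 value obtained as one member of a kinome-wide profiling panel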
# [9] = biological target: Mitogen-activated protein kinase kinase kinase kinase 2 (Homo sapiens, UniProt Q12851); assay type: functional;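 note: measured as one member of a kinome-wide kinase panel, with MAP4K2 as the panel entry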
# [10] = biological target: Casein kinase I isoform gamma-1 (Homo sapiens, UniProt Q9HCP0); assay type: functional;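 note: measured as the CSNK1G1 member of a kinome profiling panel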
# [11] = biological target: Rho-associated protein kinase 1 (Homo sapiens, UniProt Q13464); assay type: functional;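 note: measured within a broad kinome-wide panel profiling many kinases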
# [12] = biological target: Serine/threonine-protein kinase D3 (Homo sapiens, UniProt O94806); assay type: functional;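 note: determined within a kinase panel screen, with PRKCN as the panel member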
# [13] = biological target: Tyrosine-protein kinase JAK3 (Homo sapiens, UniProt P52333); assay type: functional
# Sequence of Tyrosine-protein kinase JAK3 (P52333 whole entry): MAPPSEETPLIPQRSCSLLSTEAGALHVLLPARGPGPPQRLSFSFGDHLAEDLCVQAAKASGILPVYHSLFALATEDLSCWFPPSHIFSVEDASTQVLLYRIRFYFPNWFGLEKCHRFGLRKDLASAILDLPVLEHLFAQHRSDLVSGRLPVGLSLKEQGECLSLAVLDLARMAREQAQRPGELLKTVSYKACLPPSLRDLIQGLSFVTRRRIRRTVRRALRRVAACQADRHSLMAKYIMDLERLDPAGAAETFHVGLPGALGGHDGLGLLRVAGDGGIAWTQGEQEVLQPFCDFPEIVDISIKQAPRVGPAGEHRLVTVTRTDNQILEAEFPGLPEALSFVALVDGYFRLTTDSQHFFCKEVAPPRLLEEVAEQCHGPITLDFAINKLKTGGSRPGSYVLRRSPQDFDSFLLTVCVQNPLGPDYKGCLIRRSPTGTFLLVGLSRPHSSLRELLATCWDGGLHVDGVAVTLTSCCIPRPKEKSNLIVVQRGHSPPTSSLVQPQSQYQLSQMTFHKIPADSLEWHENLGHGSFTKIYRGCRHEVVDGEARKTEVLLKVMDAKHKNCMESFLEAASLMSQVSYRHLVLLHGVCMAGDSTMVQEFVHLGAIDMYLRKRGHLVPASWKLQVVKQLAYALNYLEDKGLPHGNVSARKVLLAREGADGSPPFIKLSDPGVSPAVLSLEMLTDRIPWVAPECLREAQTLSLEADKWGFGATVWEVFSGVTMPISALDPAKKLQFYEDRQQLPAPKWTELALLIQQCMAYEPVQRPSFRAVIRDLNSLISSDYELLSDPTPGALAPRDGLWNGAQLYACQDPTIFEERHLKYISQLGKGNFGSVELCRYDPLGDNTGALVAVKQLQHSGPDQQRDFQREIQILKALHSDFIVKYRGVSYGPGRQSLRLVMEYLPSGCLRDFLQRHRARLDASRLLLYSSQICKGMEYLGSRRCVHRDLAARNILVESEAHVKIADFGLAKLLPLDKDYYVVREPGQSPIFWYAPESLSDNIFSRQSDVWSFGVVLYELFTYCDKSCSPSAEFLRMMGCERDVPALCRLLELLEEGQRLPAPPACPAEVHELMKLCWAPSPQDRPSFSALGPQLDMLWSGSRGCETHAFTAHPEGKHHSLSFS
# Misshapen-like kinase 1 = Misshapen-like kinase 1 (Homo sapiens, UniProt Q8N4C8); assay type: functional;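 note: kinome panel screen with MINK as the panel member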
# Sequence of Misshapen-like kinase 1 (Q8N4C8 whole entry): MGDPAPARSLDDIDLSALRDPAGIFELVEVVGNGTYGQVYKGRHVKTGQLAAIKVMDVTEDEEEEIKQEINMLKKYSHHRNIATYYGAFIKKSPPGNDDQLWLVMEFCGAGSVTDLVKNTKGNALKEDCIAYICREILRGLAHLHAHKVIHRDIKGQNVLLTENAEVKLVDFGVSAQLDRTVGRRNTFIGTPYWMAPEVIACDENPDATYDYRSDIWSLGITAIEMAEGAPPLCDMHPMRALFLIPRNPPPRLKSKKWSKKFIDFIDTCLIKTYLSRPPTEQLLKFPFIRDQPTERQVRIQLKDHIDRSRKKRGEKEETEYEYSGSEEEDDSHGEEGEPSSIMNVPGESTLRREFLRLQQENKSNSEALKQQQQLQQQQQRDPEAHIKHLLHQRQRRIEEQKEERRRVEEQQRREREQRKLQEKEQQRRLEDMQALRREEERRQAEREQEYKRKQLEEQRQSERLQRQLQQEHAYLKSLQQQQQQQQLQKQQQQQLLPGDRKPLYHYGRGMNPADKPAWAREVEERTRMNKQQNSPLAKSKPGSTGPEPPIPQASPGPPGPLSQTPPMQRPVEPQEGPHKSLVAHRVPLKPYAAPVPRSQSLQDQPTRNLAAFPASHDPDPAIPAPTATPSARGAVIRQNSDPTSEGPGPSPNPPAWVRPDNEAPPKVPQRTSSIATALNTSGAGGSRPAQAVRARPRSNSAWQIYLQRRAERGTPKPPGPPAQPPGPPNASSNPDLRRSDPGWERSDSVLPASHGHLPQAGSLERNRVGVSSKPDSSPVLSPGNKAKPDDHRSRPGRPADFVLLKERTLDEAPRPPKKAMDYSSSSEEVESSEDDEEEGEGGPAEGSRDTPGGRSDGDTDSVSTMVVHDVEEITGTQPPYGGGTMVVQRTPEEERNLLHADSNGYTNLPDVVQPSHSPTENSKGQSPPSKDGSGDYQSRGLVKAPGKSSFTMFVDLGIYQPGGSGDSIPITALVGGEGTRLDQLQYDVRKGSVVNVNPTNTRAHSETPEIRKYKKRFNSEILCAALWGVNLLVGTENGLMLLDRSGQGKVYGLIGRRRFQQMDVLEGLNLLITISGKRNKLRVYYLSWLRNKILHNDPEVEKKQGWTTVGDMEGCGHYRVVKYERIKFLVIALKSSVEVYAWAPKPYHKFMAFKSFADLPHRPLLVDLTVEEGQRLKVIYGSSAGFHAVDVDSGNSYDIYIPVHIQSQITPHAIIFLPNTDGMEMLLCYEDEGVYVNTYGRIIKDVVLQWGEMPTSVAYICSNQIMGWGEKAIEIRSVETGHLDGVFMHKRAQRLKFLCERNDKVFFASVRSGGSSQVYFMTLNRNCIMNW
# [14] = biological target: Calcium/calmodulin-dependent protein kinase type II subunit delta (Homo sapiens, UniProt Q13557); assay type: functional
# Sequence of Calcium/calmodulin-dependent protein kinase type II subunit delta (Q13557 whole entry, canonical isoform): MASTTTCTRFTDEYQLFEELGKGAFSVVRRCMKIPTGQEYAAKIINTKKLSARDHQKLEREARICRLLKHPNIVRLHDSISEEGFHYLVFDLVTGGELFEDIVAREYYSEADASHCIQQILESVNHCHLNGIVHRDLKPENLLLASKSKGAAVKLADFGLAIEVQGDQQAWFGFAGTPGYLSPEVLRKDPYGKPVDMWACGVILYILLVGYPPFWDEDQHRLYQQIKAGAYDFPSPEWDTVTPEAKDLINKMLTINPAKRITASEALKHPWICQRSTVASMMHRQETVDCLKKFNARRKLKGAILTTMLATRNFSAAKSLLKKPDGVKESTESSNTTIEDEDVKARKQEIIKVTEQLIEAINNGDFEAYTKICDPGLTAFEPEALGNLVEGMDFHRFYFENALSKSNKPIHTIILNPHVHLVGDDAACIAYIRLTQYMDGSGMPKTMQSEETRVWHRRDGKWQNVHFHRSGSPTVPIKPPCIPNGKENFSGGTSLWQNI
# [15] = biological target: Casein kinase I isoform alpha (Homo sapiens, UniProt P48729); assay type: functional
# Sequence of Casein kinase I isoform alpha (P48729 whole entry, canonical isoform): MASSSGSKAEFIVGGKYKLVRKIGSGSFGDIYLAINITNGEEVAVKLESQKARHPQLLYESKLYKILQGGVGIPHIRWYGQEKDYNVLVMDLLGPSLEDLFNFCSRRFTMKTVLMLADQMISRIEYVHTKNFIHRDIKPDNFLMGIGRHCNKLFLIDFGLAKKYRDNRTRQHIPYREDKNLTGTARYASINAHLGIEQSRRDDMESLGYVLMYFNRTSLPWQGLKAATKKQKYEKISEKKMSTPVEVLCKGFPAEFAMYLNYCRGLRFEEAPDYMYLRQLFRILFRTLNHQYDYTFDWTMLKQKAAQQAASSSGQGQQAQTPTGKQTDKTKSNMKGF
# [16] = biological target: Receptor tyrosine-protein kinase erbB-2 (Homo sapiens, UniProt P04626); assay: Navigating the Kinome. Panel member name: ERBB2; assay type: functional
# [17] = biological target: Casein kinase II subunit alpha (Homo sapiens, UniProt P68400); assay type: functional
# [18] = biological target: Serine/threonine-protein kinase D2 (Homo sapiens, UniProt Q9BZL6); assay type: functional;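 note: measured against PRKD2 as one member of a kinome-wide kinase profiling panel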
# Aurora kinase B = Aurora kinase B (Homo sapiens, UniProt Q96GD4); assay type: functional
# Sequence of Aurora kinase B (Q96GD4 whole entry): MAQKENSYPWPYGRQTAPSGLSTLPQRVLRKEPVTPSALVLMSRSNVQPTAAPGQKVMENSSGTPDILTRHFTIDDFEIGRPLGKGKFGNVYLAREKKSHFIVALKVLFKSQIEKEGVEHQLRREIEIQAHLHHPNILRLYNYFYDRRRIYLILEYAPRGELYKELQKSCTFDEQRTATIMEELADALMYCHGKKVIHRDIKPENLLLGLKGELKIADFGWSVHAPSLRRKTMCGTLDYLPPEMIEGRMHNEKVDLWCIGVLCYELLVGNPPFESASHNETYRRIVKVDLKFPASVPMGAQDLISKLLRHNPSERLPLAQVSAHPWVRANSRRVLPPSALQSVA
# [19] = biological target: Glycogen synthase kinase-3 beta (Homo sapiens, UniProt P49841); assay type: functional;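 note: value comes from a broad kinome profiling panel, with GSK3B as the panel member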
# Activated CDC42 kinase 1 = Activated CDC42 kinase 1 (Homo sapiens, UniProt Q07912); assay: Navigating the Kinome. Panel member name: ACK1; assay type: functional
# [20] = biological target: Serine/threonine-protein kinase Nek2 (Homo sapiens, UniProt P51955); assay type: functional
# [21] = biological target: Mitogen-activated protein kinase 9 (Homo sapiens, UniProt P45984); assay type: functional;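 note: value from a kinome panel profiling assay, MAPK9 panel entry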
# [22] = biological target: Platelet-derived growth factor receptor alpha (Homo sapiens, UniProt P16234); assay: Navigating the Kinome. Panel member name: PDGFRA; assay type: functional
# [23] = biological target: Serine/threonine-protein kinase BRSK1 (Homo sapiens, UniProt Q8TDC3); assay type: functional;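 note: measured within a kinome-wide kinase panel, with the target listed as KIAA1811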
# [24] = biological target: Interleukin-1 receptor-associated kinase 4 (Homo sapiens, UniProt Q9NWZ3); assay type: functional
# [25] = biological target: Dual specificity protein kinase CLK4 (Homo sapiens, UniProt Q9HAZ1); assay type: functional
# Sequence of Dual specificity protein kinase CLK4 (Q9HAZ1 whole entry): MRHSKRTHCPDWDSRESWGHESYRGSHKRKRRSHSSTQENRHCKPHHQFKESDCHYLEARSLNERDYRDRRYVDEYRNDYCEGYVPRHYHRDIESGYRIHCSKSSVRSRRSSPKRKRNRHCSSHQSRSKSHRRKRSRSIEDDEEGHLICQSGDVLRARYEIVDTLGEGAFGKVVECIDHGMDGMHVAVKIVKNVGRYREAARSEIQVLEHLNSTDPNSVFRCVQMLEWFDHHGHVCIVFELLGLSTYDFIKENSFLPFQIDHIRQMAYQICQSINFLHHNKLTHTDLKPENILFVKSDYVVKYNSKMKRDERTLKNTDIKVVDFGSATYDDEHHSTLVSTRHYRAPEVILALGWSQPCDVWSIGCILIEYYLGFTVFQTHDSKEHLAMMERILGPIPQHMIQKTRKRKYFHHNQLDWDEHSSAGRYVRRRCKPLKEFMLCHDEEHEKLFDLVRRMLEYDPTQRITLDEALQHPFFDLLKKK
compound,measurement,setting,value
CCC(C)n1c(NC(=O)c2ccccc2)c(C#N)c2nc3ccccc3nc21 (stereo not given),IC50,[1],> 50 µM (not active)
CCCCCCCCCCOC(=O)C[n+]1c(COc2ccc(C)cc2)n(C)c2ccccc21,AC50,CAAX prenyl protease 1,7.21 µM (active)
same,IC50,HEK293,7.28 µM (active)
O=C(CCl)Oc1ccc2occ(C(=O)c3cccs3)c2c1,IC50,[2],> 100 µM (active)
CC[C@@H](CO)NC(=O)[C@@H]1C=C2c3cccc4c3c(cn4C)C[C@H]2N(C)C1 [METHYSERGIDE MALEATE],IC50,[3],32.2 µM (inactive)
CN1CCN(c2nc(C3=C(c4c[nH]c5ccccc45)C(=O)NC3=O)c3ccccc3n2)CC1 [SOTRASTAURIN],Ki,[4],> 2.51 µM (inactive)
same,Ki,[5],> 3.98 µM (inactive)
same,Ki,[6],> 7.94 µM (inactive)
same,Ki,[7],> 10 µM (inactive)
same,Ki,[8],> 2.51 µM (inactive)
same,Ki,[9],> 5.01 µM (inactive)
same,Ki,[10],> 6.31 µM (inactive)
same,Ki,[11],> 2 µM (inactive)
same,Ki,[12],> 3.16 µM (inactive)
same,Ki,[13],0.631 µM (active)
same,Ki,Misshapen-like kinase 1,0.00794 µM (active)
same,Ki,[14],0.0316 µM (active)
same,Ki,[15],> 5.01 µM (inactive)
same,Ki,[16],0.794 µM (active)
same,Ki,[17],> 6.31 µM (inactive)
same,Ki,[18],> 10 µM (inactive)
same,Ki,Aurora kinase B,> 5.01 µM (inactive)
same,Ki,[19],0.2 µM (active)
same,Ki,Activated CDC42 kinase 1,> 3.98 µM (inactive)
same,Ki,[20],> 6.31 µM (inactive)
same,Ki,[21],> 3.98 µM (inactive)
same,Ki,[22],> 2.51 µM (inactive)
same,Ki,[23],2.51 µM (active)
same,Ki,[24],> 10 µM (inactive)
same,Ki,[25],> 5.01 µM (inactive)
